Patent US10457637B2, “Benzenesulfonamide derivatives as inverse agonists of retinoid-related orphan receptor gamma (RORγ(T))” (GALDERMA RESEARCH & DEVELOPMENT, priority 2014, dated 2019)

biological target: ROR gamma ligand-binding domain (hRORg) (Homo sapiens (Human), UniProt P51449); experiment: GAL4-RORγ transactivation (luciferase reporter, HG5LN HeLa line); format: cell-based; conditions: 18 hours incubation
Source text: GAL4-RORγ Transactivation
The RORγ transactivation model was developed from the line HG5LN, which is a HeLa line that stably expresses a luciferase reporter gene controlled by a pentamer of the GAL4 recognition domain of yeast and of a β-globin promoter. The HG5LN line was stably transfected by the DNA-binding domain (DBD) of GAL4 fused to the ROR gamma ligand-binding domain (LBD). Molecules that inhibit the ROR gamma constitutive activity reduce the luciferase expression, thus leading to a reduction in the emitted luminescence.
The cells are seeded in 384-well plates (5000 cells in 45 μL/well of culture medium containing 10% fetal calf serum) and incubated for 4 hours at 37° C., 5% CO2. 5 μL of the test molecules (compounds described in the tables described above) are then added to each well and the plates are incubated for 18 hours at a temperature of 37° C. under 5% of CO2. 20 μL of luciferase substrate (Promega) are added to each well and the luminescence emitted is read by a microplate reader.
The luminescence units (“RLU”) are normalized by positive controls (“POS” containing a saturated concentration of benzenesulfonamide, N-(2,2,2-trifluoroethyl)-N-[4-[2,2,2-trifluoro-1-hydroxy-1-(trifluoromethyl)ethyl]phenyl]) and negative controls (“NEG” containing DMSO): % inhibition=((RLU−NEG)*100)/(POS−NEG). The IC50 values are calculated from a 4-parameter logistic model using the XLFit software (IDBS).

Chain of ROR gamma ligand-binding domain (hRORg) (P51449 269-508): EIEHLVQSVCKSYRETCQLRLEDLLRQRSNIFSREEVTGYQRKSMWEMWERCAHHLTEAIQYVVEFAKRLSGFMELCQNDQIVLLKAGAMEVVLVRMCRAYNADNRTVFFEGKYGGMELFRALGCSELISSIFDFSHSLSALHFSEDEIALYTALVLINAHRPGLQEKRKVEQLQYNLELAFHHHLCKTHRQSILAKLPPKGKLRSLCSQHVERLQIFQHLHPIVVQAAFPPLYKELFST

Structure (SMILES)	IC50 [nM]
CCc1ccc(N(CC(C)C)S(=O)(=O)c2ccc(N3CC4(COC4)C3)c(S(C)(=N)=O)c2)cc1 (stereo not drawn) [compound 111, N-(4-ethylphenyl)-N-isobutyl-3-(S-methylsulfonimidoyl)-4-(2-oxa-6-azaspiro[3.3]heptan-6-yl)benzenesulfonamide]	< 100
CCc1ccc(N(CC(C)C)S(=O)(=O)c2ccc(NCc3c(C)noc3C)c(S(C)(=N)=O)c2)cc1 (stereo not drawn) [compound 97, 4-(((3,5-dimethylisoxazol-4-yl)methyl)amino)-N-(4-ethylphenyl)-N-isobutyl-3-(S-methylsulfonimidoyl)benzenesulfonamide]	100 to 1000
CCc1ccc(N(CC(C)C)S(=O)(=O)c2ccc(N3CCC4(CC3)COC4)c(S(C)(=N)=O)c2)cc1 (stereo not drawn) [compound 114, N-(4-ethylphenyl)-N-isobutyl-3-(S-methylsulfonimidoyl)-4-(2-oxa-7-azaspiro[3.5]nonan-7-yl)benzenesulfonamide]	100 to 1000
CCc1ccc(N(CC(C)C)S(=O)(=O)c2ccc(OCC3CCNCC3)c(S(C)(=N)=O)c2)cc1 (stereo not drawn) [compound 49, N-(4-ethylphenyl)-N-isobutyl-3-(S-methylsulfonimidoyl)-4-(piperidin-4-ylmethoxy)benzenesulfonamide]	> 1000
CCc1ccc(N(CC(C)C)S(=O)(=O)c2ccc(NCC3CCN(C(=O)OC)CC3)c(S(C)(=N)=O)c2)cc1 (stereo not drawn) [compound 93, methyl 4-(((4-(N-(4-ethylphenyl)-N-isobutylsulfamoyl)-2-(S-methylsulfonimidoyl)phenyl)amino)methyl)piperidine-1-carboxylate]	> 1000
CCc1ccc(N(CC(C)C)S(=O)(=O)c2ccc3c(c2)NC(=O)CS3)cc1 [compound 10, 3-oxo-3,4-dihydro-2H-benzo[1,4]thiazine-6-sulfonic acid (4-ethylphenyl)isobutylamide]	> 1000
CCc1ccc(N(CC(C)C)S(=O)(=O)c2ccc(N3CC4(CN(C(C)=O)C4)C3)c(S(C)(=N)=O)c2)cc1 (stereo not drawn) [compound 122, 4-(6-acetyl-2,6-diazaspiro[3.3]heptan-2-yl)-N-(4-ethylphenyl)-N-isobutyl-3-(S-methylsulfonimidoyl)benzenesulfonamide]	> 1000
CCc1ccc(N(CC(C)C)S(=O)(=O)c2ccc(OCC3CCN(C(=O)OC(C)(C)C)CC3)c(S(C)(=N)=O)c2)cc1 (stereo not drawn) [compound 36, tert-butyl 4-((4-(N-(4-ethylphenyl)-N-isobutylsulfamoyl)-2-(S-methylsulfonimidoyl)phenoxy)methyl)piperidine-1-carboxylate]	> 1000
CCc1ccc(N(CC(C)C)S(=O)(=O)c2ccc(OCc3cc(C)nc(C)c3)c(S(C)(=N)=O)c2)cc1 (stereo not drawn) [compound 43, 4-((2,6-dimethylpyridin-4-yl)methoxy)-N-(4-ethylphenyl)-N-isobutyl-3-(S-methylsulfonimidoyl)benzenesulfonamide]	> 1000
CCc1ccc(N(CC(C)C)S(=O)(=O)c2ccc(N3CC4(CN(C(=O)OC(C)(C)C)C4)C3)c(S(C)(=N)=O)c2)cc1 (stereo not drawn) [compound 110, tert-butyl 6-(4-(N-(4-ethylphenyl)-N-isobutylsulfamoyl)-2-(S-methylsulfonimidoyl)phenyl)-2,6-diazaspiro[3.3]heptane-2-carboxylate]	> 1000
CCc1ccc(N(CC(C)C)S(=O)(=O)c2ccc(OCc3ccnc(OC)c3)c(S(C)(=N)=O)c2)cc1 (stereo not drawn) [compound 77, N-(4-ethylphenyl)-N-isobutyl-4-((2-methoxypyridin-4-yl)methoxy)-3-(S-methylsulfonimidoyl)benzenesulfonamide]	> 1000
CCc1ccc(N(CC(C)C)S(=O)(=O)c2ccc([S+]([O-])CC3CCOCC3)c(C(=O)OC)c2)cc1 (stereo not drawn) [compound 16, methyl 5-[(4-ethylphenyl)isobutylsulfamoyl]-2-(tetrahydropyran-4-ylmethanesulfinyl)benzoate]	> 1000
CCc1ccc(N(CC(C)C)S(=O)(=O)c2ccc(NCC3(CC)COC3)c(S(C)(=N)=O)c2)cc1 (stereo not drawn) [compound 126, 4-(((3-ethyloxetan-3-yl)methyl)amino)-N-(4-ethylphenyl)-N-isobutyl-3-(S-methylsulfonimidoyl)benzenesulfonamide]	> 1000
CCc1ccc(N(CC(C)C)S(=O)(=O)c2ccc(S(=N)(=O)CC3CCOCC3)cc2)cc1 (stereo not drawn) [compound 28, N-(4-ethylphenyl)-N-isobutyl-4-(tetrahydropyran-4-ylmethanesulfoximimyl)benzenesulfonamide]	> 1000
CCc1ccc(N(CC(C)C)S(=O)(=O)c2ccc(OCC3CCN(C(C)=O)CC3)c(S(C)(=N)=O)c2)cc1 (stereo not drawn) [compound 50, 4-((1-acetylpiperidin-4-yl)methoxy)-N-(4-ethylphenyl)-N-isobutyl-3-(S-methylsulfonimidoyl)benzenesulfonamide]	> 1000
CCc1ccc(N(CC(C)C)S(=O)(=O)c2ccc(NCC3CCNC(=O)C3)c(S(C)(=N)=O)c2)cc1 (stereo not drawn) [compound 96, 4-N-(4-ethylphenyl)-N-isobutyl-3-(S-methylsulfonimidoyl)-4-(((2-oxopiperidin-4-yl)methyl)amino)benzenesulfonamide]	> 1000
CCc1ccc(N(CC(C)C)S(=O)(=O)c2ccc(NCC3CCS(=O)(=O)C3)c(S(C)(=N)=O)c2)cc1 (stereo not drawn) [compound 56, 4-(((1,1-dioxidotetrahydrothiophen-3-yl)methyl)amino)-N-(4-ethylphenyl)-N-isobutyl-3-(S-methylsulfonimidoyl)benzenesulfonamide]	100 to 1000
CCc1ccc(N(CC(C)C)S(=O)(=O)c2ccc3c(c2)sc(=O)n3CC2CCOCC2)cc1 [compound 72]	100 to 1000
CCc1ccc(N(CC(C)C)S(=O)(=O)c2ccc(NCC3CN(C(=O)OC)C3)c(S(C)(=N)=O)c2)cc1 (stereo not drawn) [compound 89, methyl 3-(((4-(N-(4-ethylphenyl)-N-isobutylsulfamoyl)-2-(S-methylsulfonimidoyl)phenyl)amino)methyl)azetidine-1-carboxylate]	> 1000
CCc1ccc(N(CC(C)C)S(=O)(=O)c2ccc3c(c2)[S+]([O-])CN3CC2CCOCC2)cc1 (stereo not drawn) [compound 75, 1-oxo-3-(tetrahydropyran-4-ylmethyl)-2,3-dihydro-1H-1λ^4-benzothiazole-6-sulfonic acid (4-ethylphenyl)isobutylamide]	> 1000
CCc1ccc(N(CC(C)C)S(=O)(=O)c2ccc(NCC3CCOCC3)c(S(N)(=O)=O)c2)cc1 [compound 67, 4-[(tetrahydropyran-4-ylmethyl)amino]benzene-1,3-disulfonic acid 3-amide 1-[(4-ethylphenyl)isobutylamide]]	100 to 1000
CCc1ccc(N(CC(C)C)S(=O)(=O)c2ccc(N3CC4(CNC4)C3)c(S(C)(=N)=O)c2)cc1 (stereo not drawn) [compound 121, -(4-ethylphenyl)-N-isobutyl-3-(S-methylsulfonimidoyl)-4-(2,6-diazaspiro[3.3]heptan-2-yl)benzenesulfonamide]	> 1000
CCc1ccc(N(CC(C)C)S(=O)(=O)c2ccc(OC3CCN(C(=O)OC(C)(C)C)CC3)c(S(C)(=N)=O)c2)cc1 (stereo not drawn) [compound 33, tert-butyl 4-(4-(N-(4-ethylphenyl)-N-isobutylsulfamoyl)-2-(S-methylsulfonimidoyl)phenoxy)piperidine-1-carboxylate]	> 1000
CCc1ccc(N(CC(C)C)S(=O)(=O)c2ccc(N3CCCOCC3)c(S(C)(=N)=O)c2)cc1 (stereo not drawn) [compound 137, N-(4-ethylphenyl)-N-isobutyl-3-(S-methylsulfonimidoyl)-4-(1,4-oxazepan-4-yl)benzenesulfonamide]	100 to 1000
CCc1ccc(N(CC(C)C)S(=O)(=O)c2ccc(SCC3CCOCC3)c(C(=O)OC)c2)cc1 [compound 17, methyl 5-[(4-ethylphenyl)isobutylsulfamoyl]-2-(tetrahydropyran-4-ylmethylsulfanyl)benzoate]	> 1000
CCc1ccc(N(CC(C)C)S(=O)(=O)c2ccc(NC3CCC(=O)NC3)c(S(C)(=N)=O)c2)cc1 (stereo not drawn) [compound 85, N-(4-ethylphenyl)-N-isobutyl-3-(S-methylsulfonimidoyl)-4-((6-oxopiperidin-3-yl)amino)benzenesulfonamide]	> 1000
CCc1ccc(N(CC(C)C)S(=O)(=O)c2ccc(OCC3C4COCC43)c(S(C)(=N)=O)c2)cc1 (stereo not drawn) [compound 31, 4-((3-oxabicyclo[3.1.0]hexan-6-yl)methoxy)-N-(4-ethylphenyl)-N-isobutyl-3-(S-methylsulfonimidoyl)benzenesulfonamide]	< 100
CCc1ccc(N(CC(C)C)S(=O)(=O)c2ccc(OCC3(C)COC3)c(S(C)(=N)=O)c2)cc1 (stereo not drawn) [compound 34, N-(4-ethylphenyl)-N-isobutyl-4-((3-methyloxetan-3-yl)methoxy)-3-(S-methylsulfonimidoyl)benzenesulfonamide]	> 1000
CCc1ccc(N(CC(C)C)S(=O)(=O)c2ccc(OCCc3ccno3)c(S(C)(=N)=O)c2)cc1 (stereo not drawn) [compound 38, N-(4-ethylphenyl)-N-isobutyl-4-(2-(isoxazol-5-yl)ethoxy)-3-(S-methylsulfonimidoyl)benzenesulfonamide]	> 1000
CCc1ccc(N(CC(C)C)S(=O)(=O)c2ccc(N3CCNCC3)c(S(C)(=N)=O)c2)cc1 (stereo not drawn) [compound 140, N-(4-ethylphenyl)-N-isobutyl-3-(S-methylsulfonimidoyl)-4-(piperazin-1-yl)benzenesulfonamide]	> 1000
